Results on eleven compounds are retold here after PubChem BioAssay (NCI).

Assay in all cases: NCI tumour cell line growth inhibition, 48 h
The subject of assay [1] is IGROV1 ovarian.
For assay [2], the system named is UACC-257 melanoma.
Assay [3] deals with HCT-15 colon.
Assay [4] has as its system HT29 colon.
The test system of assay [5] is OVCAR-5 ovarian.
Assay [6] deals with NCI-H226 lung.
Assay [7] concerns SF-295 CNS.
Assay [8] relates to A498 renal.

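Compound exposure: 48 hours, 5 concentrations, 96-well plates. GI50: concentration for 50% inhibition of growth. TGI marks complete inhibition of growth.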

`O=C(CC1(O)C(=O)N(Cc2ccccc2)c2ccccc21)c1ccc(C(=O)NCC2CCC3(CC2)OOC2(CCCCC2)OO3)cc1` (configuration not stated): the GI50 was 0.408 µM in assay [1]; 5.01 µM in assay [2]; 1.76 µM in assay [3]; 1.72 µM in assay [4]; 1.61 µM in assay [5]; 3.5 µM in assay [6]. The GI50 is 1.3 µM in assay [7] and 2.42 µM in assay [8]. Also, the TGI in assay [1] came to 1.62 µM; in assay [2], 22.9 µM; in assay [3], 4.76 µM; in assay [4], 3.82 µM; in assay [5], 7.52 µM; in assay [6] it was 10.8 µM. Also, the TGI in assay [7] was determined as 5.11 µM; in assay [8], 7.32 µM.
Turning to `Cc1cccc2c3c(sc12)C(c1ccc(Cl)cc1)C(C#N)=C(N)O3` (configuration not stated), the GI50 is 0.426 µM in assay [1]; 11.8 µM in assay [2]; 0.374 µM in assay [3]; 0.394 µM in assay [4]; 0.541 µM in assay [5]; 0.763 µM in assay [6]. The GI50 in assay [7] is 0.26 µM; in assay [8], 0.211 µM. In addition, the TGI worked out at 11.8 µM in assay [1]; 27.3 µM in assay [2]; 2.81 µM in assay [3]; 6.12 µM in assay [4]; 11.5 µM in assay [5]; 7.46 µM in assay [6]. The TGI came out at 0.992 µM in assay [7] and 1.2 µM in assay [8].
Regarding `CCN(CC)CCCCCCNc1cc(OC)cc2cccnc12`, the GI50 in assay [1] was 2.27 µM; in assay [2], 20.2 µM; in assay [3], 1.9 µM; in assay [4] it was 1.82 µM; in assay [5] it was 6.74 µM; in assay [6], 21.3 µM. Also, the GI50 in assay [7] was 11.4 µM. In addition, the TGI in assay [1] was determined as 4.86 µM; in assay [2] it was 36.8 µM; in assay [3], 3.78 µM; in assay [4], 3.43 µM; in assay [5] it was 22.7 µM; in assay [6], 43.2 µM. For the same compound, the TGI in assay [7] came out at 26.5 µM.
For the compound `COc1cc2c(cc1OC)-c1ncc3c(OC)c(OC)c(OC)cc3c1C2`, the results for the GI50 in assay [3], in assay [5] and in assay [7] were 13.7 µM, 26.6 µM and 25.8 µM, respectively. Also, the values for the TGI in assay [3], in assay [5] and in assay [7] were 44.5 µM, > 100 µM and > 100 µM, respectively.
Take `CCCCCO/N=C\c1c2c(O)c3c(O)c(C)c4c(c3c1O)C(=O)C(C)(O/C=C\C(OC)C(C)C(OC(C)=O)C(C)C(O)C(C)C(O)C(C)/C=C\C=C(\C)C(=O)N2)O4` (configuration not stated): the GI50 in assay [2] was 2.3 µM; in assay [3], 1.79 µM; in assay [5], 1.94 µM; in assay [7], 1.87 µM; in assay [8], 1.64 µM. The TGI in assay [2] was 6.19 µM; in assay [3], 3.31 µM; in assay [5], 4.12 µM; in assay [7], 4.3 µM; in assay [8], 3.16 µM.
Consider `C=CCN1CC(=O)N2[C@@H](Cc3ccc(O)cc3F)C(=O)N(Cc3cccc(N4CC(N5CCN(CC)CC5)C4)n3)C[C@@H]2N1C(=O)NCc1ccccc1`, for which the GI50 was 0.0648 µM in assay [2]; 0.449 µM in assay [3]; 0.0537 µM in assay [4]; 0.0354 µM in assay [5]; 0.0461 µM in assay [6]; 0.0965 µM in assay [7]. In addition, in assay [8], the GI50 is < 0.0118 µM. The TGI in assay [2] is 12.9 µM; in assay [3] it was > 20.9 µM; in assay [4], 16.2 µM; in assay [5] it was > 100 µM; in assay [6], > 100 µM; in assay [7], 1.02 µM. In assay [8], this compound displayed a TGI of 0.0666 µM.
For the compound `N#CCN1CCn2c1nsc2=S`, the GI50 in assay [1], in assay [2], in assay [3], in assay [4], in assay [6] and in assay [7] was > 100 µM in each case. For the same compound, in assay [8], the GI50 was > 100 µM. The TGI in assay [1], in assay [2], in assay [3], in assay [4], in assay [6] and in assay [7] was > 100 µM throughout. In assay [8], the TGI is > 100 µM.
With `O=C1c2sccc2-c2cccc3cccc1c23` (tested in a mixture with another compound), the TGI is 50.2 µM in assay [1]; 38.9 µM in assay [2]; 24.9 µM in assay [3]; 15.2 µM in assay [4]; 25.5 µM in assay [5]; 33.9 µM in assay [6]. In assay [7], the TGI is 45 µM.
Consider `COc1ccc(NC(=O)C2CCC(CNS(=O)(=O)c3ccccc3)CC2)cc1OC` (configuration not stated), for which the GI50 in assay [1], in assay [2], in assay [3], in assay [5], in assay [6] and in assay [7] was > 100 µM throughout. For the same compound, the GI50 in assay [8] was > 100 µM. The TGI in assay [1], in assay [2], in assay [3], in assay [5], in assay [6] and in assay [7] was > 100 µM throughout. The TGI in assay [8] was > 100 µM.
For `N#CCCN1C/C(=C/c2ccc(Cl)cc2)C(=O)/C(=C/c2ccc(Cl)cc2)C1`, the GI50 in assay [1] was 1.75 µM; in assay [2], 2.05 µM; in assay [3], 0.412 µM; in assay [4], 0.238 µM; in assay [5], 2.07 µM; in assay [6], 2.35 µM. Besides, the GI50 in assay [8] is 1.59 µM. The TGI in assay [1] is 3.95 µM; in assay [2], 4.38 µM; in assay [3] it was 1.78 µM; in assay [4], 0.574 µM; in assay [5], 4.7 µM; in assay [6], 8.48 µM. In assay [8], this compound had a TGI of 3.11 µM.
With `COc1cc2c(cc1OCCCCN1CCN(C(=S)SCCC(C#N)(c3ccccc3)c3ccccc3)CC1)N=C[C@@H]1CCCN1C2=O`, the GI50 in assay [2] was 1.97 µM; in assay [3], 1.41 µM; in assay [4], 1.13 µM; in assay [5], 2.47 µM; in assay [6], 1.26 µM; in assay [8], 1.19 µM. In addition, the TGI was 4.17 µM in assay [2]; 3.9 µM in assay [3]; > 100 µM in assay [4]; 5.38 µM in assay [5]; 3.29 µM in assay [6]; 2.81 µM in assay [8].
